According to US10760052B2, “Method of inhibiting tau phosphorylation” (priority 2012, dated 2020):
Read-outs that look alike come from different tables or passages of the source.

Target: T1, mu opiate receptor (MOR) (Rattus norvegicus, UniProt P33535)
T1 construct: from tissue; host or cells: striatum (membrane preparation)
Format: biochemical
Details: for MOR agonist activity ([35S]GTPγS binding), compound as agonist: preliminary study, average of two runs

[1] = 0.1 μM compound, striatal membranes, Series C-2
[2] = 1 μM compound + 1 μM β-FNA (selective MOR antagonist), Series C-2
[3] = 1 μM compound, striatal membranes, Series C-2
[4] = [35S]GTPγS binding to Gαo in striatal membranes, compound 0.1 μM
[5] = [35S]GTPγS binding to Gαo in striatal membranes, compound 1 μM
[6] = [35S]GTPγS binding to Gαo in striatal membranes, compound 1 μM plus 1 μM β-funaltrexamine (MOR antagonist)

T1 sequence (P33535 whole entry): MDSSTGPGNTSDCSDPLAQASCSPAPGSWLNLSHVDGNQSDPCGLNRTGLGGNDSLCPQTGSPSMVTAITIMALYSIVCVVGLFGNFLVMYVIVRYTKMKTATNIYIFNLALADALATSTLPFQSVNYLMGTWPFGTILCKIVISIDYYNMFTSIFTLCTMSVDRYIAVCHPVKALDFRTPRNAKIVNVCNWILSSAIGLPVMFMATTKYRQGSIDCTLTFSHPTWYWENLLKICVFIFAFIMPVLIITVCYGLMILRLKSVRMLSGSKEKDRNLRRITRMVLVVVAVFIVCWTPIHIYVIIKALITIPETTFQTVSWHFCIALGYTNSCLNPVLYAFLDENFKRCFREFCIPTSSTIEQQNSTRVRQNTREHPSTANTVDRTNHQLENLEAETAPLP

SMILES | % DAMGO (0.1 μM) | % DAMGO (1 μM) | % DAMGO + BFNA | [35S]GTPγS binding, FLNA-Binding Compound as Agonist at 0.1 μM [1] | [35S]GTPγS binding, FLNA-Binding Compound as Agonist at 1 μM + BFNA [2] | [35S]GTPγS binding, FLNA-Binding Compound as Agonist at 1 μM [3] | Concentration of FLNA-Binding Compound as Agonist 0.1 μM [4] | Concentration of FLNA-Binding Compound as Agonist 1 μM [5] | Concentration of FLNA-Binding Compound as Agonist 1 μM + BFNA [6] | other results
CC(=O)c1ccc(S(=O)(=O)N2CC(CN(C)C)OC23CCNCC3)cc1 (stereo not drawn) [Compound C0118M] | 87.8% | 105.4% | 163.3% |  |  |  |  |  |  | [35S]GTPγS binding, FLNA-Binding Compound as Agonist at 0.1 μM: 166.2%; [35S]GTPγS binding, FLNA-Binding Compound as Agonist at 1 μM: 261.5%; [35S]GTPγS binding, FLNA-Binding Compound as Agonist at 1 μM + BFNA: 79.2%
CC(=O)c1ccc(S(=O)(=O)N2C(Cc3c[nH]cn3)C(=O)NC23CCNCC3)cc1 (stereo not drawn) [Compound C0119M] | 71.9% | 83.0% | 89.3% |  |  |  |  |  |  | [35S]GTPγS binding, FLNA-Binding Compound as Agonist at 0.1 μM: 105.7%; [35S]GTPγS binding, FLNA-Binding Compound as Agonist at 1 μM: 167.8%; [35S]GTPγS binding, FLNA-Binding Compound as Agonist at 1 μM + BFNA: 35.1%
O=C1CN(Cc2ccccc2)C2(CCN(CC3CC3)CC2)N1 [Compound C0125M] | 89.1% | 78.6% | 329.3% | 168.6% | 159.7% | 195.2% |  |  |  | 
CS(=O)(=O)c1ccc(S(=O)(=O)N2CCOC23CCN(CC2CC2)CC3)cc1 [Compound C0126M] | 108.5% | 119.3% | 228.4% | 181.8% | 108.5% | 265.3% |  |  |  | 
CC(=O)c1ccc(S(=O)(=O)N2CC(CN(C)C)OC23CCN(CC2CC2)CC3)cc1 (stereo not drawn) [Compound C0128M] | 104.5% | 115.2% | 131.8% | 197.8% | 63.9% | 286.0% |  |  |  | 
COc1ccc(S(=O)(=O)N2CCOC23CCN(C(C)C)CC3)cc1 [Compound C0133M] | 83.2% | 96.6% | 152.4% | 139.4% | 72.4% | 214.8% |  |  |  | 
Cc1ccc(S(=O)(=O)N2CCOC23CCN(CC2CC2)CC3)cc1 [Compound C0134M] |  |  |  |  |  |  |  |  |  | MOR agonist activity ([35S]GTPγS binding), compound as agonist (0.1 μM): 150.7%; MOR agonist activity ([35S]GTPγS binding), compound as agonist (1 μM + βNFA): 53.2%; MOR agonist activity ([35S]GTPγS binding), compound as agonist (1 μM): 224.0%
CCc1ccc(S(=O)(=O)N2CCOC23CCN(CC2CC2)CC3)cc1 [Compound C0135M] | 85.3% | 124.9% | 233.6% |  |  |  |  |  |  | [35S]GTPγS binding, FLNA-Binding Compound as Agonist at 0.1 μM: 161.3%; [35S]GTPγS binding, FLNA-Binding Compound as Agonist at 1 μM: 310.1%; [35S]GTPγS binding, FLNA-Binding Compound as Agonist at 1 μM + BFNA: 113.3%
O=C1CN(Cc2ccccc2)C2(CCN(S(=O)(=O)c3cc(Cl)cc(Cl)c3O)CC2)N1 [Compound C0138M] | 86.3% | 90.9% | 131.0% |  |  |  | 126.9% | 183.9% | 51.5% | 
O=C1CN(Cc2ccccc2)C2(CCN(S(=O)(=O)c3cc(Cl)c(O)c(Cl)c3)CC2)N1 [Compound C0139M] | 106.2% | 102.2% | 129.8% |  |  |  | 156.1% | 206.6% | 51.0% | 
O=S(=O)(c1ccc2ccccc2c1)N1CCC2(CC1)OCCN2S(=O)(=O)c1ccc2ccccc2c1 [Compound C0140M] | 85.8% | 106.5% | 211.2% |  |  |  | 126.1% | 215.4% | 83.0% | 
O=S(=O)(c1cccs1)N1CCC2(CC1)OCCN2S(=O)(=O)c1cccs1 [Compound C0141M] | 109.9% | 105.8% | 121.9% |  |  |  | 161.5% | 213.9% | 47.9% | 
COc1ccc(S(=O)(=O)N2CCC3(CC2)NCCC(=O)N3)cc1 [Compound C0142M] | 97.8% | 95.2% | 251.1% | 143.7% | 98.7% | 192.5% |  |  |  | 
O=S(=O)(c1cccc2cccnc12)N1CCC2(CC1)OCCN2S(=O)(=O)c1cccc2cccnc12 [Compound C0143M] | 47.1% | 59.3% | 94.7% | 81.0% | 86.5% | 193.3% | 81.0% | 193.3% | 86.5% | 
COc1ccc(S(=O)(=O)N2CCC3(NCCO3)C3CCCCC32)cc1 (stereo not drawn) [Compound C0144M-2] | 108.3% | 90.8% | 137.9% | 186.3% | 125.9% | 295.9% |  |  |  | 
COc1ccc(S(=O)(=O)N2CCC3(OCCN3S(=O)(=O)c3ccc(OC)cc3)C3CCCCC32)cc1 (stereo not drawn) [Compound C0144M] | 108.3% | 90.8% | 137.9% |  |  |  | 186.3% | 295.9% | 125.9% | 
COc1ccc(S(=O)(=O)N2CCOC23CCCNC3)cc1 (stereo not drawn) [Compound C0145M-3] | 112.2% | 88.7% | 95.3% | 193.0% | 87.0% | 289.2% |  |  |  | 
COc1ccc(S(=O)(=O)N2CCCC3(C2)OCCN3S(=O)(=O)c2ccc(OC)cc2)cc1 (stereo not drawn) [Compound C0145M] | 112.2% | 88.7% | 95.3% |  |  |  | 193.0% | 289.2% | 87.0% | 
O=S(=O)(c1ccccc1Oc1ccccc1)N1CCC2(CC1)NCCO2 [Compound C0149M-2] | 122.0% | 124.8% | 102.3% | 209.8% | 93.4% | 406.7% |  |  |  | 
O=S(=O)(c1ccc(Oc2ccccc2)cc1)N1CCC2(CC1)OCCN2S(=O)(=O)c1ccc(Oc2ccccc2)cc1 [Compound C0149M] | 122.0% | 124.8% | 102.3% |  |  |  | 209.8% | 406.7% | 93.4% | 
O=S(=O)(c1csc2ccccc12)N1CCC2(CC1)OCCN2S(=O)(=O)c1csc2ccccc12 [Compound C0150M] | 97.2% | 129.8% | 173.2% |  |  |  | 167.1% | 423.1% | 93.4% | 
COc1ccc(NC(=O)N2CCC3(CC2)NCCO3)cc1 [Compound C0151M-2] | 201.6% | 122.0% | 233.1% | 346.8% | 212.8% | 397.6% |  |  |  | 
COc1ccc(NC(=O)N2CCC3(CC2)OCCN3C(=O)Nc2ccc(OC)cc2)cc1 [Compound C0151M] | 201.6% | 122.0% | 233.1% |  |  |  | 346.8% | 397.6% | 212.8% | 
C[C@@H](NC(=O)[C@@H](N)Cc1ccc(O)cc1)C(=O)NCC(=O)N(C)[C@@H](Cc1ccccc1)C(=O)NCCO [DAMGO, reference compound] |  |  |  |  |  |  |  |  |  | Concentration of FLNA-Binding Compound as Agonist 0.1 μM: 168.5%; Concentration of FLNA-Binding Compound as Agonist 1 μM: 266.1%; Concentration of FLNA-Binding Compound as Agonist 1 μM + BFNA: 53.2%; [35S]GTPγS binding, FLNA-Binding Compound as Agonist at 0.1 μM: 168.5%; [35S]GTPγS binding, FLNA-Binding Compound as Agonist at 1 μM: 266.1%; [35S]GTPγS binding, FLNA-Binding Compound as Agonist at 1 μM + BFNA: 53.2%
COc1ccc(S(=O)(=O)N2CCSC23CCNCC3)cc1 [S-C0027] | 74.2% | 84.4% | 98.1% | 156.2% | 56.2% | 286.8% |  |  |  | 
